Consider 15 compounds from US20170114025A1, “METHODS FOR INHIBITING NECROPTOSIS” (Catalyst Therapeutics Pty Ltd, priority 2014, published 2017).

Like-named read-outs stand apart in the source and are kept apart here.

The subject of data set [1] is U937 human histiocytic leukemia cell line. The data set is described as follows: Screening for inhibition of TSQ induced necroptosis, 96 well plate format. The format is cell-based. As for the experimental part:
Screening Compounds for Inhibition of TSQ Induced Necroptosis, 96 Well Plate Format.
U937 human histiocytic leukemia cell line.
35,000 per well in 120 μL of media, counted and plated immediately prior to addition of inhibitor and death stimuli. Final well volume of 150 μL after addition of compounds and death stimuli
HTRPMI (WEHI Media kitchen, contains L-Glutamine and penicillin, streptomycin)—supplemented with 7.4% v/v FCS (Gibco, Precision Plus. Lot #1221437)
48 hours following addition of compounds and death stimuli
DMSO Final Concentration (% v/v): 0.2%
Compounds that are in the Death Stimulation Cocktail and their Final Concentrations: • hTNF-Fc (100 ng/ml)—produced by Silke lab, WEHI • Compound A (500 nM)—Smac mimetic, Tetralogic • Q-VD-OPh (10 μM)—MP Biomedicals
Analysis: • Cells treated with PI staining (1 μg/ml) and analysed by flow cytometry
TNF; S: Smac mimetic; Q: Q-VD-OPh): TSQ treatment ensures that cells specifically undergo necroptotic cell death. TNF activates the TNF receptor, Smac mimetic direct the signal away from proinflammatory signaling and toward the RIP1/RIP3-mediated cell death pathways, and Q-VD-OPh ensures that the apoptotic response is blocked leaving only the programmed necrosis response. The compounds' activity (solution in DMSO) tested in this TSQ-induced assay is evaluated by measuring their ability to block cell death as measured by flow cytometry after PI staining.

For data set [2], the system named is U937 cells. The data set is described as follows: Counter screen: cell viability without TSQ cocktail (off target effect). The format is cell-based. On the procedure: In parallel, all compounds are tested for their ability to affect cell viability. The same U937 cells are treated with compound in DMSO without the TSQ cocktail. This counter screen enables evaluation of off-target effects. In this case gain, cell viability is measured by flow cytometry after PI staining.
(In general: A counterscreen serves to expose hits that act by an unwanted route or on another target.)

[3] abbreviates: U-937, U937, TSQ, 48 hours, average IC50, unit not given in Table 2 (titrations in nM), read-out: Cell based assay Average.
The mark [4] stands for this setting: U-937, U937, TSQ, 48 hours, unit not given in Table 2 (titrations given in nM), read-out: Cell based assay IC50.
Where [5] appears, read: U937 without TSQ cocktail, compound at 500 nM.
Where [6] appears, read: U937 without TSQ cocktail, compound at 1 uM.
Where [7] appears, read: U937 without TSQ cocktail, compound at 5 uM.
The mark [8] stands for this setting: U937 without TSQ cocktail, compound at 10 uM.

With `CN(c1ccc(NC(=O)Nc2ccc(OC(F)(F)F)cc2)cc1)c1ccnc(Nc2ccccc2S(N)(=O)=O)n1` [Compound 5, 2-(4-(Methyl(4-(3-(4-(trifluoromethoxy)phenyl)ureido)phenyl)amino)pyrimidin-2-ylamino)benzenesulfonamide], the IC50 in data set [1] (setting [3]) was > 10000 nM; in data set [1] (setting [4]), ≥ 10000 nM.
With `Cc1ccc(F)c(NC(=O)Nc2ccc(N(C)c3ccnc(Nc4cccc(S(N)(=O)=O)c4)n3)cc2)c1` [Compound 6], the results for the IC50 in data set [1] (setting [3]) and in data set [1] (setting [4]) were 19.9 nM and 19 nM, respectively. Further, the “Off target effect (% cell death) at 500 nM” value in data set [2] (setting [5]) is given as <20%. Moreover, the “Off target effect (% cell death) at 1 uM” value in data set [2] (setting [6]) came out at 40%. Besides, the “Off target effect (% cell death) at 5 uM” value in data set [2] (setting [7]) came out at 86%. In addition, the “Off target effect (% cell death) at 10 uM” value in data set [2] (setting [8]) is 89%.
As for `CN(c1ccc(NC(=O)Nc2ccc(OC(F)(F)F)cc2)cc1)c1ccnc(Nc2cccc(C(N)=O)c2)n1` [Compound 8, 3-((4-(methyl(4-(3-(4-(trifluoromethoxy)phenyl)ureido)phenyl)amino)pyrimidin-2-yl)amino) benzamide], the results for the IC50 in data set [1] (setting [3]) and in data set [1] (setting [4]) were 89.1 nM and 85.2 nM, respectively.
Regarding `CNS(=O)(=O)c1cccc(Nc2nccc(N(C)c3ccc(NC(=O)Nc4ccc(OC(F)(F)F)cc4)cc3)n2)c1` [Compound 9, N-methyl-3-((4-(methyl(4-(3-(4-(trifluoromethoxy)phenyl)ureido)-phenyl)amino)pyrimidin-2-yl)amino) benzenesulfonamide], the IC50 in data set [1] (setting [3]) came out at 42 nM; in data set [1] (setting [4]), 73.1 nM. Also, the “Off target effect (% cell death) at 500 nM” value in data set [2] (setting [5]) is <20%. For the same compound, the “Off target effect (% cell death) at 1 uM” value in data set [2] (setting [6]) was <20%. Besides, in data set [2] (setting [7]), the “Off target effect (% cell death) at 5 uM” value is recorded as 43%. The “Off target effect (% cell death) at 10 uM” value in data set [2] (setting [8]) is reported as 88%.
Regarding `CN(c1ccc(NC(=O)Nc2ccc(OC(F)(F)F)cc2)cc1)c1ccnc(Nc2cccc(S(=O)(=O)N(C)C)c2)n1` [Compound 10, N,N-dimethyl-3-((4-(methyl(4-(3-(4-(trifluoromethoxy)phenyl)ureido)-phenyl)amino)pyrimidin-2-yl)amino)benzenesulfonamide], the IC50 was found to be 45.6 nM in data set [1] (setting [3]) and 72.4 nM in data set [1] (setting [4]). The “Off target effect (% cell death) at 500 nM” value in data set [2] (setting [5]) is reported as <20%. Also, the “Off target effect (% cell death) at 1 uM” value in data set [2] (setting [6]) is given as <20%. The “Off target effect (% cell death) at 5 uM” value in data set [2] (setting [7]) came out at 38%. In addition, the “Off target effect (% cell death) at 10 uM” value in data set [2] (setting [8]) is given as 69%.
As for `NS(=O)(=O)c1cccc(Nc2nccc(Nc3ccc(NC(=O)Nc4ccc(OC(F)(F)F)cc4)cc3)n2)c1` [Compound 11, 3-((4-((4-(3-(4-(trifluoromethoxy)phenyl)ureido)phenyl)amino)pyrimidin-2-yl)amino)benzenesulfonamide], the IC50 in data set [1] (setting [3]) and in data set [1] (setting [4]) was 359 nM each time. Further, in data set [2] (setting [5]), the “Off target effect (% cell death) at 500 nM” value is given as <20%. Also, the “Off target effect (% cell death) at 1 uM” value in data set [2] (setting [6]) was <20%. Besides, the “Off target effect (% cell death) at 5 uM” value in data set [2] (setting [7]) is listed as <20%. Further, the “Off target effect (% cell death) at 10 uM” value in data set [2] (setting [8]) turned out to be 20%.
Turning to `CN(C(=O)Nc1ccc(OC(F)(F)F)cc1)c1ccc(N(C)c2ccnc(Nc3cccc(S(N)(=O)=O)c3)n2)cc1` [Compound 12, 3-((4-(methyl(4-(1-methyl-3-(4-(trifluoromethoxy)phenyl)ureido)phenyl)amino)pyrimidin-2-yl)amino) benzene sulfonamide], in data set [1] (setting [4]), the IC50 is 327 nM. Besides, the “Off target effect (% cell death) at 500 nM” value in data set [2] (setting [5]) is listed as 36%. Further, in data set [2] (setting [6]), the “Off target effect (% cell death) at 1 uM” value is 41%. Also, the “Off target effect (% cell death) at 5 uM” value in data set [2] (setting [7]) is on record as 36%. Further, the “Off target effect (% cell death) at 10 uM” value in data set [2] (setting [8]) was 56%.
`CN(c1ccc(NC(=O)Nc2ccc(OC(F)(F)F)cc2)cc1)c1ccnc(Nc2cccc(CS(N)(=O)=O)c2)n1` [Compound 13, (3-((4-(Methyl(4-(3-(4-(trifluoromethoxy)phenyl)ureido)phenyl)amino)pyrimidin-2-yl)amino)phenyl)methanesulfonamide]: the IC50 in data set [1] (setting [3]) stood at 149 nM; in data set [1] (setting [4]), 167 nM. In data set [2] (setting [5]), the “Off target effect (% cell death) at 500 nM” value was 24%. Further, the “Off target effect (% cell death) at 1 uM” value in data set [2] (setting [6]) is on record as 20%. In addition, the “Off target effect (% cell death) at 5 uM” value in data set [2] (setting [7]) amounted to 14%. The “Off target effect (% cell death) at 10 uM” value in data set [2] (setting [8]) is 84%.
With `CN(c1cccc(NC(=O)Nc2ccc(OC(F)(F)F)cc2)c1)c1ccnc(Nc2cccc(S(N)(=O)=O)c2)n1` [Compound 14, 3-((4-(methyl(3-(3-(4-(trifluoromethoxy)phenyl)ureido)phenyl)amino)pyrimidin-2-yl)amino) benzenesulfonamide], the IC50 in data set [1] (U-937, 48 h, read-out: Cell based assay Average) turned out to be 342 nM; in data set [1] (U-937, 48 h, read-out: Cell based assay IC50), 443 nM. Further, the “Off target effect (% cell death) at 500 nM” value in data set [2] (setting [5]) is given as <20%. Further, the “Off target effect (% cell death) at 1 uM” value in data set [2] (setting [6]) is given as <20%. The “Off target effect (% cell death) at 5 uM” value in data set [2] (setting [7]) was <20%. In addition, in data set [2] (setting [8]), the “Off target effect (% cell death) at 10 uM” value was 70%.
For the compound `CN(c1ccc(NC(=O)Nc2ccc(OC(F)(F)F)cc2)cc1)c1ccnc(Nc2cccc(S(N)(=O)=O)c2)c1` [Compound 15, 3-((4-(methyl(4-(3-(4-(trifluoromethoxy)phenyl)ureido)phenyl)amino)pyridin-2-yl)amino) benzenesulfonamide], the IC50 in data set [1] (setting [3]) amounted to 304 nM; in data set [1] (setting [4]), 328 nM. The “Off target effect (% cell death) at 500 nM” value in data set [2] (setting [5]) was <20%. For the same compound, in data set [2] (setting [6]), the “Off target effect (% cell death) at 1 uM” value is on record as <20%. Further, the “Off target effect (% cell death) at 5 uM” value in data set [2] (setting [7]) was <20%. The “Off target effect (% cell death) at 10 uM” value in data set [2] (setting [8]) turned out to be 43%.
On to `CN(c1ccc(NC(=O)Cc2ccc(OC(F)(F)F)cc2)cc1)c1ccnc(Nc2cccc(S(N)(=O)=O)c2)n1` [Compound 16, N-(4-(methyl(2-((3-sulfamoylphenyl)amino)pyrimidin-4-yl)amino)phenyl)-2-(4-(trifluoro-methoxy)phenyl)acetamide], for which the IC50 is 87.3 nM in data set [1] (setting [3]) and 97.5 nM in data set [1] (setting [4]). Further, the “Off target effect (% cell death) at 500 nM” value in data set [2] (setting [5]) is <20%. In data set [2] (setting [6]), the “Off target effect (% cell death) at 1 uM” value is reported as <20%. In addition, in data set [2] (setting [7]), the “Off target effect (% cell death) at 5 uM” value is on record as <20%. For the same compound, in data set [2] (setting [8]), the “Off target effect (% cell death) at 10 uM” value was found to be 30%.
`CN(c1ccc(CC(=O)Nc2ccc(OC(F)(F)F)cc2)cc1)c1ccnc(Nc2cccc(S(N)(=O)=O)c2)n1` [Compound 17, 2-(4-(methyl(2-((3-sulfamoylphenyl)amino)pyrimidin-4-yl)amino)phenyl)-N-(4-(trifluoromethoxy)phenyl)acetamide]: the IC50 in data set [1] (setting [3]) worked out at 1050 nM; in data set [1] (setting [4]), 979 nM. Further, the “Off target effect (% cell death) at 500 nM” value in data set [2] (setting [5]) amounted to 22%. In addition, the “Off target effect (% cell death) at 1 uM” value in data set [2] (setting [6]) stood at 21%. Further, in data set [2] (setting [7]), the “Off target effect (% cell death) at 5 uM” value was <20%. The “Off target effect (% cell death) at 10 uM” value in data set [2] (setting [8]) is reported as 39%.
Take `CN(c1ccc(NC(=O)Nc2ccc(OC(F)(F)F)cc2)cc1)c1ccnc(Nc2ccc(F)c(S(N)(=O)=O)c2)n1` [Compound 18, 2-Fluoro-5-((4-(methyl(4-(3-(4-(trifluoromethoxy)phenyl)ureido)phenyl)amino)pyrimidin-2-yl)amino)benzenesulfonamide]: the IC50 in data set [1] (setting [3]) amounted to 59.4 nM; in data set [1] (setting [4]) it was 91.7 nM. Besides, in data set [2] (setting [5]), the “Off target effect (% cell death) at 500 nM” value is recorded as 27%. In data set [2] (setting [6]), the “Off target effect (% cell death) at 1 uM” value is reported as 29%. In data set [2] (setting [7]), the “Off target effect (% cell death) at 5 uM” value turned out to be 94%. Moreover, the “Off target effect (% cell death) at 10 uM” value in data set [2] (setting [8]) is 93%.
As for `Cc1ccc(Nc2nccc(N(C)c3ccc(NC(=O)Nc4ccc(OC(F)(F)F)cc4)cc3)n2)cc1C(=O)N(C)C` [Compound 19, N,N,2-trimethyl-5-((4-(methyl(4-(3-(4-(trifluoromethoxy)phenyl)ureido)phenyl)amino)pyrimidin-2-yl)amino)benzamide], the results for the IC50 in data set [1] (setting [3]) and in data set [1] (setting [4]) were 85.5 nM and 114 nM, respectively. Further, in data set [2] (setting [5]), the “Off target effect (% cell death) at 500 nM” value came to 28%. Besides, in data set [2] (setting [6]), the “Off target effect (% cell death) at 1 uM” value is given as 30%. Further, the “Off target effect (% cell death) at 5 uM” value in data set [2] (setting [7]) came out at 26%. Moreover, the “Off target effect (% cell death) at 10 uM” value in data set [2] (setting [8]) stood at 70%.
Regarding `Cc1cc(OC(F)(F)F)ccc1NC(=O)Nc1ccc(N(C)c2ccnc(Nc3cccc(S(N)(=O)=O)c3)n2)cc1` [Compound 20, 3-((4-(Methyl(4-(3-(2-methyl-4-(trifluoromethoxy)phenyl)ureido)phenyl)-amino)pyrimidin-2-yl)amino) benzenesulfonamide], the IC50 in data set [1] (setting [3]) came out at 109 nM; in data set [1] (setting [4]), 143 nM. Besides, the “Off target effect (% cell death) at 500 nM” value in data set [2] (human, 500 nM) came to 24%. Also, in data set [2] (human, 1 uM), the “Off target effect (% cell death) at 1 uM” value is listed as 29%. Further, the “Off target effect (% cell death) at 5 uM” value in data set [2] (human, 5 uM) is recorded as 33%. For the same compound, the “Off target effect (% cell death) at 10 uM” value in data set [2] (human, 10 uM) is recorded as 80%.
